Reference: PubChem BioAssay (NCI)
Where “and” joins values, the source holds several entries; their conditions need not be identical. Identical values can stand only once.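 Each compound was tested at five concentrations against cells in 96-well plates for 48 hours. Abbreviation: GI50, concentration required for 50% inhibition of growth. At the TGI there is no net growth.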

Key:
Test in all cases: DTP human tumour cell line panel, 48 h
MDA-MB-231 breast = test system: MDA-MB-231 breast
HCT-15 colon = test system: HCT-15 colon
BT-549 breast = test system: BT-549 breast
SK-OV-3 ovarian = test system: SK-OV-3 ovarian
SK-MEL-28 melanoma = test system: SK-MEL-28 melanoma
CCRF-CEM leukemia = test system: CCRF-CEM leukemia
HL-60(TB) leukemia = test system: HL-60(TB) leukemia
HS 578T breast = test system: HS 578T breast
U251 CNS = test system: U251 CNS
SF-268 CNS = test system: SF-268 CNS

Compound | TGI (MDA-MB-231 breast) | TGI (HCT-15 colon) | TGI (BT-549 breast) | TGI (SK-OV-3 ovarian) | TGI (SK-MEL-28 melanoma) | TGI (CCRF-CEM leukemia) | TGI (HL-60(TB) leukemia) | TGI (HS 578T breast) | TGI (U251 CNS) | TGI (SF-268 CNS) | GI50 (MDA-MB-231 breast) | GI50 (HCT-15 colon) | GI50 (BT-549 breast) [µM] | GI50 (SK-OV-3 ovarian) | GI50 (SK-MEL-28 melanoma) | GI50 (CCRF-CEM leukemia) | GI50 (HL-60(TB) leukemia) | GI50 (HS 578T breast) | GI50 (U251 CNS) | GI50 (SF-268 CNS)
CC(=O)CC[N+](C)(C)C | 38.6 µM | 46.4 µM | 62.6 µM | 51.9 µM | 50 µM | 13.7 µM | 14 µM | > 39.3 µM | 59.9 µM | 76.8 µM |  |  |  |  |  |  |  |  |  | 
COc1ccc(CCN2CCCn3c2nc2ccccc2c3=O)cc1 | > 100 µM | > 100 µM | > 100 µM | > 100 µM | > 100 µM | > 100 µM | 0.982 µM | > 100 µM |  | > 100 µM | 0.408 µM | 0.0444 µM | 0.717 | 0.396 µM | 2.42 µM | 0.162 µM | 0.038 µM | 0.356 µM | 0.0552 µM | 1.16 µM
O=C(CSSCC(=O)c1ccc(Cl)cc1)c1ccc(Cl)cc1 | 24.2 µM | 28.6 µM | 39.9 µM | 22.4 µM | 22.5 µM | > 100 µM | > 100 µM | > 100 µM | 17.5 µM | 64.7 µM | 4.93 µM | 6.73 µM | 8.92 | 4.34 µM | 5.83 µM | 3.39 µM | 3.75 µM | 7.51 µM | 4.16 µM | 4.3 µM
CCC/C=C/C=C/C(=O)OC1/C(=C/C(=O)OC)CC2CC(C(C)O)OC(=O)CC(O)CC3CC(OC(C)=O)C(C)(C)C(O)(CC4C/C(=C/C(=O)OC)CC(/C=C/C(C)(C)C1(O)O2)O4)O3 (stereo not drawn) | 11 µM and > 12.5 µM | 7.35 µM and 11 µM and > 12.5 µM | 11 µM and > 12.5 µM | > 10.9 µM and 11 µM and > 12.5 µM | > 10.9 µM and 11 µM and > 12.5 µM | 10.9 µM and 11 µM and > 12.5 µM | 10.9 µM and 5.43 µM and > 12.5 µM | 10.8 µM and > 12.5 µM | > 10.9 µM and 9.3 µM and > 12.5 µM | 9.13 µM and 11 µM and > 12.5 µM | > 12.5 µM | 5.15 µM and 10.8 µM and > 12.5 µM | > 12.5 | > 10.9 µM and 8.51 µM and > 12.5 µM | 8.54 µM and > 12.5 µM | 8.79 µM and 5.35 µM and > 12.5 µM | 4.61 µM and 1.81 µM and > 12.5 µM | > 12.5 µM | > 10.9 µM and 7.21 µM and > 12.5 µM | 6.18 µM and > 12.5 µM
COc1ccc(C2=C(c3ccc(OC)cc3)C(=O)OC2)cc1 | > 39.3 µM | 8.27 µM | > 100 µM | > 100 µM | > 100 µM | 18.5 µM | 4.58 µM | 3.93 µM | 3.46 µM | 27.6 µM | 5.15 µM | 0.514 µM | 11.7 | 2.2 µM | 6.29 µM | 3.29 µM | 0.525 µM | 0.604 µM | 0.421 µM | 1.52 µM
CCc1nc(N)nc(N)c1C#CC(C)c1ccc(-c2ccncc2)cc1Cl (stereo not drawn) | 7.11 µM and 19.8 µM | 5.24 µM and 11.9 µM | 2.8 µM and 12.1 µM | 2.63 µM and 14.6 µM | 4.52 µM and 17 µM | 5.48 µM and 14.5 µM | 1.75 µM and 2.61 µM | 3.47 µM and 19.9 µM | 5.1 µM and 11.6 µM | 3.2 µM and 16.8 µM | 0.555 µM and 0.511 µM | < 0.005 µM and 0.0127 µM |  | 0.0977 µM and 0.0932 µM | 0.0645 µM and 0.375 µM | 0.0143 µM and 0.0367 µM | 0.0226 µM and 0.0298 µM | 0.687 µM and 2.25 µM | 0.0108 µM and 0.028 µM | 0.0287 µM and 0.0682 µM
C[C@H]1C[C@@H](n2c(Nc3ccc(OC(F)(F)F)cc3)nc3cc(CCC(=O)O)ccc32)CC(C)(C)C1 | 32.9 µM | 18.9 µM | 12 µM | 35.4 µM | 22.5 µM | 44.5 µM | 29.1 µM | 31.1 µM | 28.1 µM | 27.7 µM | 16 µM | 5.69 µM | 3.13 | 20 µM | 8.26 µM | 16.2 µM | 10.3 µM | 10.5 µM | 11.2 µM | 12.1 µM
N#CC1=C(N)NC(=O)C(C#N)C12Nc1ccccc1S2 (stereo not drawn) | > 100 µM | > 100 µM | > 100 µM | > 100 µM | > 100 µM | > 100 µM | > 100 µM | > 100 µM | > 100 µM | > 100 µM | 29.8 µM | > 100 µM | 69.9 | 66.6 µM | > 100 µM | > 100 µM | 91.6 µM | 43.2 µM | > 100 µM | > 100 µM
O=C(Nc1cc(Cl)c(I)c(Cl)c1)C(F)(F)F | > 100 µM | 45.9 µM | 63 µM | 58.9 µM | 74 µM | 66.4 µM | 58.3 µM | 75.7 µM | > 100 µM | > 100 µM |  |  |  |  |  |  |  |  |  | 
COc1ccc([N+](=O)[O-])c2c(NCCCN(C)C)c(C)c(C)nc12 | > 100 µM | > 100 µM | > 100 µM | > 100 µM | > 100 µM | > 100 µM | > 100 µM | > 100 µM | > 100 µM | > 100 µM |  |  |  |  |  |  |  |  |  | 
O=C(O)CCCN1C(=O)/C(=C/C(Cl)=C/c2ccccc2)SC1=S | 10.7 µM | 6.06 µM | 4.8 µM | 19 µM | 3.47 µM | 10.2 µM | 10.5 µM | 10.6 µM | 4.63 µM | 7.41 µM | 3.17 µM | 1.03 µM | 1.91 | 6.24 µM | 1.66 µM | 0.786 µM | 0.551 µM | 2.73 µM | 1.8 µM | 2.5 µM
O=[N+]([O-])c1ccccc1/C=N\NC(=S)N/N=C/c1ccccc1[N+](=O)[O-] | > 100 µM | > 100 µM | > 100 µM | > 100 µM | > 100 µM | > 100 µM | > 100 µM | 33.6 µM | > 100 µM | > 100 µM | 37.8 µM | 3.76 µM | 39.6 | 6.07 µM | 8.44 µM | 4.19 µM | 3.59 µM | 3.61 µM | 4.9 µM | 5.73 µM
NCC(=O)Nc1ccc(Cl)cc1C(=O)c1ccc[nH]1 | > 100 µM | > 100 µM | > 100 µM | > 100 µM | > 100 µM | 22.5 µM | > 100 µM | > 100 µM | > 100 µM | > 100 µM |  |  |  |  |  |  |  |  |  | 
COc1cc(/C=C/C(=O)c2c(C)n([O-])c3ccccc3[n+]2=O)cc(OC)c1OC | 22.4 µM | 15.6 µM | 13.5 µM | 25.5 µM | 28.9 µM | 23.3 µM | > 100 µM | 21 µM | 17.2 µM | 25.7 µM | 9.57 µM | 4 µM | 3.18 | 11 µM | 11.2 µM | 3.66 µM | 5.24 µM | 3.51 µM | 5.14 µM | 5.65 µM
